Reference: the NIST ThermoML archive (doi:10.1016/j.jct.2010.07.016)

Legend:
[1] = xn = mol fraction of the nth substance listed; details: 308.15 K, 101 kPa, Liquid; for excess molar volume: Direct dilatometry; for speed of sound: Linear variable-path acoustic interferometer
[2] = excess molar enthalpy (molar enthalpy of mixing); xn = mol fraction of the nth substance listed; details: 308.15 K, 101 kPa, Liquid, Drop calorimeter

C1CCOCC1 [tetrahydropyran] + Cc1ccc(C)cc1
Details | excess molar enthalpy [kJ/mol] | excess molar volume [m3/mol] | speed of sound [m/s]
[1], x1 = 0.0639 | – | -2.2e-08 | –
[1], x1 = 0.0784 | – | – | 1271
[1], x1 = 0.1503 | – | -4.3e-08 | –
[1], x1 = 0.1521 | – | – | 1267
[1], x1 = 0.2123 | – | – | 1263
[1], x1 = 0.2321 | – | -5.5e-08 | –
[1], x1 = 0.2835 | – | -5.9e-08 | –
[1], x1 = 0.2876 | – | – | 1258
[1], x1 = 0.3331 | – | -6.1e-08 | –
[1], x1 = 0.3342 | – | – | 1255
[1], x1 = 0.3832 | – | -6.1e-08 | –
[1], x1 = 0.4091 | – | – | 1251
[1], x1 = 0.4421 | – | -6e-08 | –
[1], x1 = 0.4953 | – | – | 1247
[1], x1 = 0.5127 | – | -5.7e-08 | –
[1], x1 = 0.5186 | – | – | 1245
[1], x1 = 0.5515 | – | -5.4e-08 | –
[1], x1 = 0.5684 | – | – | 1243
[1], x1 = 0.6027 | – | -4.9e-08 | –
[1], x1 = 0.6175 | – | – | 1241
[1], x1 = 0.6529 | – | -4.4e-08 | –
[1], x1 = 0.7077 | – | – | 1237
[1], x1 = 0.7211 | – | -3.6e-08 | –
[1], x1 = 0.7905 | – | -2.7e-08 | –
[1], x1 = 0.7909 | – | – | 1233
[1], x1 = 0.8666 | – | – | 1230
[1], x1 = 0.8673 | – | -1.7e-08 | –
[1], x1 = 0.9354 | – | – | 1227
[2], x1 = 0.0804 | -0.0286 | – | –
[2], x1 = 0.1402 | -0.0533 | – | –
[2], x1 = 0.2416 | -0.0944 | – | –
[2], x1 = 0.3002 | -0.115 | – | –
[2], x1 = 0.3842 | -0.136 | – | –
[2], x1 = 0.4706 | -0.146 | – | –
[2], x1 = 0.5776 | -0.14 | – | –
[2], x1 = 0.6454 | -0.126 | – | –
[2], x1 = 0.6914 | -0.113 | – | –
[2], x1 = 0.7432 | -0.0955 | – | –
[2], x1 = 0.7919 | -0.0767 | – | –
[2], x1 = 0.8476 | -0.054 | – | –
[2], x1 = 0.9021 | -0.0322 | – | –
[2], x1 = 0.9415 | -0.0177 | – | –

C1CCOCC1 [tetrahydropyran] + Cc1ccccc1
Details | excess molar enthalpy [kJ/mol] | excess molar volume [m3/mol] | speed of sound [m/s]
[1], x1 = 0.0554 | – | -3.1e-08 | –
[1], x1 = 0.0673 | – | -3.7e-08 | –
[1], x1 = 0.085 | – | -4.6e-08 | –
[1], x1 = 0.0925 | – | – | 1259
[1], x1 = 0.1343 | – | – | 1258
[1], x1 = 0.1534 | – | -7.9e-08 | –
[1], x1 = 0.1789 | – | – | 1257
[1], x1 = 0.1861 | – | -9.2e-08 | –
[1], x1 = 0.2311 | – | -1.1e-07 | –
[1], x1 = 0.2587 | – | – | 1256
[1], x1 = 0.2942 | – | -1.29e-07 | –
[1], x1 = 0.3742 | – | – | 1254
[1], x1 = 0.4109 | – | -1.53e-07 | –
[1], x1 = 0.4263 | – | – | 1253
[1], x1 = 0.4815 | – | – | 1251
[1], x1 = 0.5187 | – | – | 1250
[1], x1 = 0.5273 | – | -1.59e-07 | –
[1], x1 = 0.5795 | – | – | 1248
[1], x1 = 0.6433 | – | -1.46e-07 | –
[1], x1 = 0.6765 | – | – | 1243
[1], x1 = 0.7122 | – | – | 1242
[1], x1 = 0.7215 | – | -1.27e-07 | –
[1], x1 = 0.7646 | – | – | 1239
[1], x1 = 0.8202 | – | -9.3e-08 | –
[1], x1 = 0.8487 | – | – | 1234
[1], x1 = 0.9252 | – | – | 1229
[1], x1 = 0.9297 | – | -4e-08 | –
[1], x1 = 0.9735 | – | -1.6e-08 | –
[2], x1 = 0.0445 | -0.0285 | – | –
[2], x1 = 0.0662 | -0.0427 | – | –
[2], x1 = 0.0837 | -0.0541 | – | –
[2], x1 = 0.1138 | -0.0737 | – | –
[2], x1 = 0.2154 | -0.135 | – | –
[2], x1 = 0.2806 | -0.169 | – | –
[2], x1 = 0.3031 | -0.179 | – | –
[2], x1 = 0.397 | -0.21 | – | –
[2], x1 = 0.5319 | -0.223 | – | –
[2], x1 = 0.6305 | -0.206 | – | –
[2], x1 = 0.7413 | -0.163 | – | –
[2], x1 = 0.8325 | -0.112 | – | –
[2], x1 = 0.9352 | -0.0445 | – | –
[2], x1 = 0.9727 | -0.0187 | – | –

C1CCOCC1 [tetrahydropyran] + c1ccccc1
Details | excess molar enthalpy [kJ/mol] | excess molar volume [m3/mol] | speed of sound [m/s]
[1], x1 = 0.0555 | – | – | 1256
[1], x1 = 0.0684 | – | -4.9e-08 | –
[1], x1 = 0.1029 | – | -6.9e-08 | –
[1], x1 = 0.1165 | – | – | 1253
[1], x1 = 0.1472 | – | – | 1251
[1], x1 = 0.1673 | – | -1.01e-07 | –
[1], x1 = 0.1835 | – | -1.08e-07 | –
[1], x1 = 0.2223 | – | – | 1248
[1], x1 = 0.243 | – | -1.29e-07 | –
[1], x1 = 0.2728 | – | – | 1246
[1], x1 = 0.3143 | – | -1.45e-07 | –
[1], x1 = 0.3751 | – | – | 1241
[1], x1 = 0.4085 | – | -1.56e-07 | –
[1], x1 = 0.4395 | – | – | 1239
[1], x1 = 0.4821 | – | – | 1237
[1], x1 = 0.5291 | – | -1.52e-07 | –
[1], x1 = 0.5313 | – | – | 1238
[1], x1 = 0.599 | – | -1.42e-07 | –
[1], x1 = 0.6223 | – | – | 1233
[1], x1 = 0.6543 | – | -1.3e-07 | –
[1], x1 = 0.681 | – | – | 1231
[1], x1 = 0.7321 | – | – | 1230
[1], x1 = 0.7452 | – | -1.05e-07 | –
[1], x1 = 0.7823 | – | -9.3e-08 | –
[1], x1 = 0.8253 | – | – | 1228
[1], x1 = 0.8754 | – | -5.7e-08 | –
[1], x1 = 0.9123 | – | – | 1226
[1], x1 = 0.9539 | – | -2.3e-08 | –
[2], x1 = 0.0484 | -0.0326 | – | –
[2], x1 = 0.0757 | -0.0516 | – | –
[2], x1 = 0.0978 | -0.0671 | – | –
[2], x1 = 0.1432 | -0.0985 | – | –
[2], x1 = 0.2425 | -0.161 | – | –
[2], x1 = 0.311 | -0.195 | – | –
[2], x1 = 0.385 | -0.222 | – | –
[2], x1 = 0.4982 | -0.236 | – | –
[2], x1 = 0.6013 | -0.222 | – | –
[2], x1 = 0.6875 | -0.191 | – | –
[2], x1 = 0.7073 | -0.182 | – | –
[2], x1 = 0.7832 | -0.14 | – | –
[2], x1 = 0.8501 | -0.0974 | – | –
[2], x1 = 0.923 | -0.0488 | – | –
